Data set [1] deals with Botrytis cinerea (ATCC #204446). Put plainly: in vitro inhibition assay for volatile antimicrobial compounds (headspace, PDA agar). The class given is cell-based. The settings on record: for MIC / EC50: Botrytis cinerea, ATCC204446, 72 h, volatile headspace exposure, 3 days at 23° C.; for EC50: growth relative to control. How it is done:
(§1) 12-well (6.5 ml volume per well) microtiter plates are used for the in vitro inhibition assay for volatile antimicrobial compounds. A 3-ml volume of full-strength Potato Dextrose Agar (PDA) is added to each well. After cooling, 1 μL of 1×10^5 spores per ml Botrytis cinerea (ATCC #204446) spore suspension is spot pipetted to the agar in the center of the well. Whatman #1 filter disks (1.5 cm; Cat. No. 1001-0155) are placed on the underside of a polyethylene PCR plate sealing film. For determination of the minimum inhibitory concentration (MIC), test compounds are diluted in acetone, in duplicate, and 50 μli of the compound solution is added to disks at concentrations that can vary from 0.001 mg/l to 1142.9 mg/l. The acetone is permitted to evaporate for 5 minutes. The headspace around the Botrytis cinerea inoculum is then sealed inside the well by the film with the adhering disk containing the antimicrobial, anti-decay, anti-spoilage, or pathogen control agent. Plates are inverted to prevent any possibility of the chemical from flaking from the disk and falling onto the inoculated agar.

Data set [2] has as its system Penicillium expansum. The data set is described as above. The class given is cell-based. Particulars: volatile headspace exposure. How it is done: [The procedure below names another organism; the source lists this organism under the same test.] as §1
Data set [3] has as its system Botrytis cinerea (ATCC #204446). Put plainly: Grape in vivo analysis, volatile bioassay on inoculated green table grape. The settings on record: for antimicrobial activity against Botrytis cinerea in grape in vivo analysis: stem wound inoculated, 3 days treatment at 21° C. plus 3 days evaluation; for phytotoxicity in grape in vivo analysis: symptoms of phytotoxicity evaluated daily. Details: species or system Botrytis cinerea on green table grape. How it is done: In order to assess the in vivo activity of volatile antimicrobial compounds, a volatile bioassay is developed using green table grape. Fruit are removed from the rachis, and 16 to 20 fruit are placed inside a 1 dry pint clamshell (Produce Packaging; Product #03231004KZ) with the stem wound facing upwards. The grapes are inoculated by pipetting 20 μL of 1×10^6 spore per ml Botrytis cinerea (ATCC #204446) into the stem wound. The clamshell is placed inside a 2.55 L plastic container (Snapware; Model #1098421). A Whatman #1 filter paper (4.25 cm; Cat. No. 1001-042) is placed on a watchglass, which is then placed on top of the closed clamshell lid. For determination of the MIC, test compounds are diluted in acetone, and 400 μl of the solution is added to disks, in duplicate, in a dose dependent manner (for example 0.4 to 50 mg/liter). The acetone is permitted to evaporate for 5 minutes. The plastic containers are then closed and placed for 3 days at 21° C. Clamshells are then removed from the treatment plastic container and placed into separate larger secondary containers for a further 3 days of evaluation at 21° C. During these 3 days, fruit are evaluated daily for incidence and severity of disease and symptoms of phytotoxicity.

Data set [4] has the same test system. Put plainly: Strawberry in vivo analysis, volatile bioassay on wound-inoculated strawberry. The settings on record: for phytotoxicity in strawberry in vivo analysis: symptoms of phytotoxicity evaluated daily; for antimicrobial activity against Botrytis cinerea in strawberry in vivo analysis: wound-inoculated, 3 days treatment at 21° C. plus 3 days evaluation. Details: species or system Botrytis cinerea on strawberry. As to the method: In order to assess the in vivo activity of volatile antimicrobial compounds, a volatile bioassay is developed using strawberry. Fruit (6 to 8) are placed inside a 1 lb clamshell (Packaging Direct Inc.; Product #4341699) with the calyx facing downward. The strawberry fruit are wound-inoculated by pipetting 20 μL of 1×10^6 spore per ml Botrytis cinerea (ATCC #204446) into a wound approximately 5 mm deep and 2.6 mm in width. The clamshell is placed inside a 2.55 L plastic container (Snapware; Model #1098421). A Whatman #1 filter paper (4.25 cm; Cat. No. 1001-042) is placed on a watchglass, which is then placed on top of the closed clamshell lid. For determination of the MIC, test compounds are diluted in acetone, and 400 μl of the solution is added to disks, in duplicate, in a dose dependent manner (for example 0.4 to 50 mg/liter). The acetone is permitted to evaporate for 5 minutes. The plastic containers are then closed and placed for 3 days at 21° C. Clamshells are then removed from the treatment plastic container and placed into separate larger secondary containers for a further 3 days of evaluation at 21° C. During these 3 days, fruit are evaluated daily for incidence and severity of disease and symptoms of phytotoxicity.

The test system of data set [5] is Escherichia coli (ATCC #25922). Put plainly: in vitro inhibition assay for volatile antimicrobial compounds against bacteria (LB agar). The class given is cell-based. Particulars: volatile headspace exposure, 2 days at 23° C. As to the method: 12-well (6.5 ml volume per well) microtiter plates are used for the in vitro inhibition assay for volatile antimicrobial compounds. A 3-ml volume of full-strength L^B Agar is added to each well. After cooling, 15 μL of Escherichia coli (ATCC #25922) adjusted to an optical density of 0.02 to 0.035, and further diluted 1/10 is pipetted to the center of the agar. The plate is tilted to distribute bacteria uniformly. Whatman #1 filter disks (1.5 cm; Cat. No. 1001-0155) are placed on the underside of a polyethylene PCR plate sealing film. […] The acetone is permitted to evaporate for 5 minutes. The headspace around the Escherichia coli inoculum is then sealed inside the well by the film with the adhering disk containing the antimicrobial, anti-decay, anti-spoilage, or pathogen control agent. Plates are inverted, placed over the treated disks and sealed to prevent any of the chemical from flaking from the disk and falling onto the inoculated agar. After 2 days of incubation at 23° C., cultures were evaluated for colony growth relative to control.

The subject of data set [6] is Alternaria alternata. Nature of the data set: in vitro inhibition assay for volatile antimicrobial compounds (headspace, PDA agar). Particulars: volatile headspace exposure. The class given is cell-based. How it is done:
[The procedure below names another organism; the source lists this organism under the same test.] as §1

Data set [7] concerns Monilinia fructicola. Described as above. Particulars: volatile headspace exposure. It is filed as cell-based. As to the method:
[The procedure below names another organism; the source lists this organism under the same test.] as §1

The subject of data set [8] is Glomerella cingulata. The data set is described as above. The class given is cell-based. The settings on record: Colletotrichum gloeosporioides; volatile headspace exposure.

Converted amounts (≈) assume the structure as drawn.

In the case of `Fc1ccc2c(c1)COB2OCCCOB1OCc2cc(F)ccc21` [Compound 13, 1,3-bis((5-fluorobenzo[c][1,2]oxaborol-1(3H)-yl)oxy)propane], in data set [1], it took 0.3 µg/mL (≈ 0.872 µM) to inhibit growth (MIC) and the EC50 turned out to be 0.1 µg/mL (≈ 0.291 µM). Moreover, in data set [2], the midpoint of the response, the EC50, lay at 0.8 µg/mL (≈ 2.33 µM) and the minimum inhibitory concentration (MIC) worked out at 8.9 µg/mL (≈ 25.9 µM). Moreover, in data set [3], the “antimicrobial activity against Botrytis cinerea in grape in vivo analysis” value is listed as “good antimicrobial activity” and the “phytotoxicity in grape in vivo analysis” value is “no phytotoxicity”. In data set [4], the “phytotoxicity in strawberry in vivo analysis” value (shortened to “phytotoxicity in strawberry”) is recorded as “no phytotoxicity” and the “antimicrobial activity against Botrytis cinerea in strawberry in vivo analysis” value was “good antimicrobial activity”. Moreover, the “antimicrobial activity against Escherichia coli (colony growth relative to control)” value in data set [5] is reported as “good antimicrobial activity”.

Regarding `CC(COB1OCc2cc(F)ccc21)OB1OCc2cc(F)ccc21` (stereo not drawn) [Compound 11, 1,1′-(propane-1,2-diylbis(oxy))bis(5-fluoro-1,3-dihydrobenzo[c][1,2]oxaborole)], the 50% effective concentration (EC50) in data set [6] is 0.31 µg/mL (≈ 0.901 µM); in data set [1], 0.2 µg/mL (≈ 0.582 µM); in data set [7], 0.2 µg/mL (≈ 0.582 µM); in data set [2] it was < 0.6 µg/mL. Moreover, the values for the MIC in data set [6], in data set [1] and in data set [2] were 1.1 µg/mL (≈ 3.2 µM), 0.6 µg/mL (≈ 1.74 µM) and 8.9 µg/mL (≈ 25.9 µM), respectively.

In data set [6], `CC(C)(OB1OCc2cc(F)ccc21)C(C)(C)OB1OCc2cc(F)ccc21` [Compound 9, 1,1′-((2,3-dimethylbutane-2,3-diyl)bis(oxy))bis(5-fluoro-1,3-dihydrobenzo[c][1,2]oxaborole)] yielded an EC50 of 0.3 µg/mL (≈ 0.777 µM) and an MIC of 2.2 µg/mL (≈ 5.7 µM). In data set [1], this molecule came in with an MIC of 1.1 µg/mL (≈ 2.85 µM) and a concentration giving a half-maximal response (EC50) of 0.3 µg/mL (≈ 0.777 µM). Moreover, in data set [2], it took 0.8 µg/mL (≈ 2.07 µM) to reach a half-maximal effect (EC50) and the minimum inhibitory concentration (MIC) turned out to be 4.5 µg/mL (≈ 11.7 µM). For the same molecule, in data set [3], the “antimicrobial activity against Botrytis cinerea in grape in vivo analysis” value is recorded as “good antimicrobial activity” and the “phytotoxicity in grape in vivo analysis” value is on record as “no phytotoxicity”. Further, in data set [4], the “phytotoxicity in strawberry” value was “no phytotoxicity” and the “antimicrobial activity against Botrytis cinerea in strawberry in vivo analysis” value is reported as “good antimicrobial activity”. Further, in data set [5], the “antimicrobial activity against Escherichia coli (colony growth relative to control)” value was “good antimicrobial activity”.

Consider `c1ccc2c(c1)COB2OCCOB1OCc2ccccc21` [Compound 1, 1,2-bis(benzo[c][1,2]oxaborol-1(3H)-yloxy)ethane], for which the EC50 in data set [6] was < 0.6 µg/mL; in data set [1], 0.9 µg/mL (≈ 3.06 µM); in data set [7] it was 6.8 µg/mL (≈ 23.1 µM); in data set [2] it was 2.5 µg/mL (≈ 8.51 µM); in data set [8], 11.1 µg/mL (≈ 37.8 µM). Moreover, the minimal inhibitory concentration (MIC) in data set [6] worked out at 8.9 µg/mL (≈ 30.3 µM); in data set [1], 2.2 µg/mL (≈ 7.48 µM); in data set [7] it was 35.7 µg/mL (≈ 121 µM); in data set [2], 8.9 µg/mL (≈ 30.3 µM); in data set [8], 143 µg/mL (≈ 486 µM). Besides, in data set [3], the “antimicrobial activity against Botrytis cinerea in grape in vivo analysis” value is given as “good antimicrobial activity”. In data set [3], the “phytotoxicity in grape in vivo analysis” value was “no phytotoxicity”. In addition, the “phytotoxicity in strawberry” value in data set [4] is “no phytotoxicity”. The “antimicrobial activity against Botrytis cinerea in strawberry in vivo analysis” value in data set [4] is reported as “good antimicrobial activity”. In data set [5], the “antimicrobial activity against Escherichia coli (colony growth relative to control)” value is recorded as “good antimicrobial activity”.

In the case of `CC(C)(COB1OCc2ccccc21)COB1OCc2ccccc21` [Compound 2, 1,1′-((2,2-dimethylpropane-1,3-diyl)bis(oxy))bis(1,3-dihydrobenzo[c][1,2]oxaborole)], the EC50 in data set [6] is 2.3 µg/mL (≈ 6.85 µM); in data set [2] it was 12.2 µg/mL (≈ 36.3 µM); in data set [8] it was 9.1 µg/mL (≈ 27.1 µM). In addition, the values for the minimal inhibitory concentration (MIC) in data set [6], in data set [2] and in data set [8] were 8.9 µg/mL (≈ 26.5 µM), 71.4 µg/mL (≈ 212 µM) and 143 µg/mL (≈ 425 µM), respectively.

Take `Fc1ccc2c(c1)COB2OCCOB1OCc2cc(F)ccc21` [Compound 7, 1,2-bis((5-fluorobenzo[c][1,2]oxaborol-1(3H)-yl)oxy)ethane]: the EC50 is 0.3 µg/mL (≈ 0.909 µM) in data set [6], 0.2 µg/mL (≈ 0.606 µM) in data set [1] and < 0.6 µg/mL in data set [2]. In addition, the MIC in data set [6] was determined as 2.2 µg/mL (≈ 6.67 µM); in data set [1], 0.6 µg/mL (≈ 1.82 µM); in data set [7], 2.2 µg/mL (≈ 6.67 µM); in data set [2], 8.9 µg/mL (≈ 27 µM). Also, in data set [1] (in vitro analysis, b318 says Botrytis cinerea and/or other pathogens), the “antimicrobial activity against Botrytis cinerea (in words)” value was “excellent activity”. In addition, in data set [3], the “antimicrobial activity against Botrytis cinerea in grape in vivo analysis” value is on record as “good antimicrobial activity”. Further, the “phytotoxicity in grape in vivo analysis” value in data set [3] is reported as “no phytotoxicity”. Moreover, the “phytotoxicity in strawberry” value in data set [4] was “no phytotoxicity”. For the same molecule, the “antimicrobial activity against Botrytis cinerea in strawberry in vivo analysis” value in data set [4] was “good antimicrobial activity”. In data set [5], the “antimicrobial activity against Escherichia coli (colony growth relative to control)” value is “good antimicrobial activity”.

`OC(COB1OCc2cc(F)ccc21)COB1OCc2cc(F)ccc21` [Compound 12, 1,3-bis((5-fluorobenzo[c][1,2]oxaborol-1(3H)-yl)oxy)propan-2-ol]: the MIC in data set [1] worked out at 0.6 µg/mL (≈ 1.67 µM); in data set [2] it was 8.9 µg/mL (≈ 24.7 µM). The EC50 in data set [1] came to 0.2 µg/mL (≈ 0.556 µM); in data set [2], 1.1 µg/mL (≈ 3.06 µM).

With `Fc1ccc2c(c1)COB2OB1OCc2cc(F)ccc21` [Compound 20, 1,1′-oxybis(5-fluoro-1,3-dihydrobenzo[c][1,2]oxaborole)], in data set [1], the MIC amounted to 0.3 µg/mL (≈ 1.05 µM) and the 50% effective concentration (EC50) was 0.1 µg/mL (≈ 0.35 µM). In data set [2], the EC50 stood at 0.5 µg/mL (≈ 1.75 µM) and inhibition of growth (MIC) required 4.5 µg/mL (≈ 15.7 µM).

What is called MIC is the lowest concentration that inhibits growth of the organism. Read a high MIC as weaker potency. As usually defined, the EC50 is the concentration giving half of the maximal effect. Read a high EC50 as lower potency in that assay.

(Values after patent publication US20210238201A1, “ANTIMICROBIAL COMPOUNDS AND COMPOSITIONS” (AGROFRESH INC., priority 2020, published 2021).)
